According to US9145375B2, “Quinazolinone compounds” (PRANA BIOTECHNOLOGY LIMITED, priority 2008, dated 2015):
Several values for one entry are separate records, joined by “and”; a condition that tells them apart may be missing. Identical values can stand only once.

What was measured:
[1] = system: generation of hydrogen peroxide (H2O2) by iron; assay: H2O2 Inhibition Assay; assay type: biochemical
Procedure: Assay 1. H2O2 Inhibition Assay.
(§1) This fluoresence assay evaluates the ability of a test compound to inhibit the generation of hydrogen peroxide (H2O2) by iron in the presence of a reducing substrate such as ascorbic acid. In the assay, iron in the form of FeCl3 or copper is allowed to react with ascorbic acid by incubating for 1 hr at 37° C. in the presence of the fluorescing compound DCF and horseradish peroxidase. H2O2 generated by the system is assessed by measuring the specific fluorescence profile at the excitation and emission wavelengths of 485 and 530 nm respectively, in the presence of increasing concentrations of test compound. Test compounds are ranked according to their capacity to inhibit H2O2 generated by the system where lower values reflect greater ability to inhibit H2O2 production.

[2] = system: Fe-DA; assay: H2O2 assay, Fe-DA (% cf. Fe 0.4 μM/DA 50 μM); assay type: biochemical; conditions: Fe 0.4 μM/DA 50 μM
Procedure: as §1

[3] = system: Neuronal cortical cells; assay: Cytotox (% viable); Primary Neuronal Cells Neurotoxicity Assay; assay type: cell-based, mouse; conditions: cell type not given, repeat values given
Procedure: Assay 2 (a). Primary Neuronal Cells Neurotoxicity Assays
Cortical cultures were prepared as previously described (White et al., 1998). Embryonic day 14 BL6Jx129sv mouse cortices were removed, dissected free of meninges and dissociated in 0.025% (wt/vol) trypsin. Dissociated cells were plated in 48 well culture plates at a density of 2×10^6 cells/mL in MEM with 25% (vol/vol) FCS and 5% (vol/vol) HS and incubated at 37° C., 2 hrs. Media was then replaced with Neurobasal media (Invitrogen Life Technologies) and B27 supplements (Invitrogen Life Technologies). Cultures were maintained at 37° C. in 5% CO2. Prior to experimentation, the culture medium was replaced with Neurobasal media and B27 minus antioxidants (Invitrogen Life Technologies).
Neuronal cortical cells were cultured for five days as per Assay 2 in NB media and B27 supplement.
On day six the test compounds were added to the neuronal cell cultures in NB media and B27 supplement minus antioxidants.
Test compounds were dissolved in 100% DMSO to a concentration of 2.5 mM (10 mM if excess compound was weighed out per vial—then diluted to 2.5 mM). 2.5 mM stock solution was serially diluted 1 in 10 to give working solutions of 250 uM, 25 uM, 2.5 uM. Test compounds were not added directly to cells, instead they were added to a 48 well ‘Drug Plate’ as comprised below: • Preparation of “Drug Plate”:
Well 1: 576 ul NB+B27 (no antioxidant)*+24 ul 2.5 uM test compound
Well 2: 576 ul NB+B27 (no antioxidant)+24 μl 25 uM test compound
Well 3: 576 ul NB+B27 (no antioxidant)+24 ul 250 uM test compound
Well 4: 576 ul NB+B27 (no antioxidant)+24 ul 2.5 uM test compound
Well 5: 576 ul NB+B27 (no antioxidant)+24 ul 25 uM test compound
Well 6: 576 ul NB+B27 (no antioxidant)+24 ul 250 uM test compound
Well 7: 576 ul NB+B27 (no antioxidant)+24 ul test compound diluent**
Well 8: 600 ul NB+B27 (no antioxidant)
The Drug Plate was incubated at 37° C. for 15 mins. 200 ul of each well was added in triplicate to the corresponding cell plate. The cell plate was incubated at 37° C., for 4 days, (2 compounds are tested on each plate of cells).
*NB media and B27 (no antioxidants),
**PBT diluent 10% DMSO in NB+1327 (no antioxidants)
On completion of the assay, 1/10 volume MTS was added per well of plate (ie 25 ul/250 ul). The plates were incubated at 37° C. for 2 hrs, and then absorbance was read at 560 nm.

[4] = system: M17 human neuroblastoma cells; assay: Metal Uptake Assay (metal transport); assay type: cell-based; conditions: 10 μM Cu + 10 μM compound, 5 hours
Procedure: Assay 3. Metal Uptake Assay
M17 human neuroblastoma cells are plated out on 6 well plates and left overnight. Enough cells are added to give approximately 70% confluent the following day of the experiment. Test compounds are added to media and mixed with equi-molar amounts of CuCl2 solution. A=10 μM Cu+10 μM MPAC; B=10 μM Cu+10 μM MPAC.
Cells are incubated in 1 ml of media/MPAC/Cu mix for 5 hours at 37° C. At the end of the incubation the media is removed with a vacuum aspirator and 1 ml of PBS added to dislodge the cells. Cells are then put into Eppendorf tubes and pelleted. The PBS is removed and the remaining cell pellets are frozen at −20 C.
The cell pellets are prepared as follows:
Received cell pellets of similar levels in 1.5 ml microfuge tubes. Added 50 μl of concentrated Nitric Acid (Aristar, BDH) to each cell pellet and allowed them to digest over night. Heated the samples for 20 min at 90° C. to complete the digestion. The volume of each sample was reduced to ˜45 ul after digestion. Added 1 ml of the 1% Nitric Acid diluent to each sample. (referred to as the “preparation solution” samples).
Measurements were made using a Varian UltraMass ICPMS instrument under operating conditions suitable for routine multi-element analysis.
The instrument was calibrated using Blank, 10, 50 and 100 ppb of a certified multi-element ICPMS standard solution (ICP-MS—CAI2-1, Accustandard) for Fe, Cu and Zn in 1% nitric acid. Used an certified internal standard solution containing 100 ppb Yttrium (Y 89) as an internal control (ICP-MS—IS-MIX1-1, Accustandard).

SMILES	IC50 [1]	Fe-DA % cf. Fe 0.4 μM/DA 50 μM [2]	Cytotox (% viable at 1 uM) [3]	Cytotox (% viable at 10 uM) [3]	Metal transport [4]
CCCN(CCC)Cc1nc2c(O)c(Cl)cc(Cl)c2c(=O)n1CC1CC1 [Compound F4535]	880 nM	62%	87.0% and 103.0%	63.6% and 59.8%	Metal transport 25%
CCCN(CCC)Cc1nc2c(O)c(Cl)cc(Cl)c2c(=O)n1CCC [Compound F4543]	500 nM	71%	92.0% and 107.4%	52.6% and 61.5%	Metal transport 62%
CCn1c(CN(C)Cc2ccc(F)cc2)nc2c(O)c(Cl)cc(Cl)c2c1=O [Compound F4487]	760 nM	53%			Metal transport 133%
CCN(CC)Cc1nc2c(O)c(Cl)cc(Cl)c2c(=O)n1CC(C)C [Compound F4546]	460 nM	66%	95.6% and 92.2% and 103.3%	63.7% and 86.5% and 100.3%	Metal transport 21%
CCCn1c(CN2CCCCC2)nc2c(O)c(Cl)cc(Cl)c2c1=O [Compound F4492]	1140 nM	55%			Metal transport 18%
C#CCN(C)Cc1nc2c(O)c(Cl)cc(Cl)c2c(=O)n1CC [Compound F4392]	570 nM	72%			Metal transport 161%
CCCn1c(CNCC)nc2c(O)c(Cl)cc(Cl)c2c1=O [Compound F4540]	> 10000 nM	122%	100.4% and 111.5%	83.4% and 96.5%	Metal transport 14%
CCCNCc1nc2c(O)c(Cl)cc(Cl)c2c(=O)n1C [Compound F4477]	220 nM	65%			Metal transport 16%
CCCCN(C)Cc1nc2c(O)c(Cl)cc(Cl)c2c(=O)n1C [Compound F4552]	630 nM	59%	97.8% and 99.0%	58.7% and 62.8%	Metal transport 94%
CCN(C)Cc1nc2c(O)c(Cl)cc(Cl)c2c(=O)n1CC1CC1 [Compound F4581]	500 nM				

Now from value to molecule, other results behind:

IC50 [1]	SMILES	Fe-DA % cf. Fe 0.4 μM/DA 50 μM [2]	Cytotox (% viable at 1 uM) [3]	Cytotox (% viable at 10 uM) [3]	Metal transport [4]
500 nM	Cn1c(CN2CCCCC2)nc2c(O)c(Cl)cc(Cl)c2c1=O [Compound F4475]	80%			Metal transport 8%
1890 nM	O=c1c2c(Cl)cc(Cl)c(O)c2nc(CN2CCCC2)n1CC1CC1 [Compound F4499]	55%	99.1% and 76.5%	68.6% and 78.1%	Metal transport 15%
380 nM	CCCN(CCC)Cc1nc2c(O)c(Cl)cc(Cl)c2c(=O)n1CC(C)C [Compound F4548]	40%	96.5% and 96.0%	55.9% and 46.0%	Metal transport 38%
550 nM	CCN(C)Cc1nc2c(O)c(Cl)cc(Cl)c2c(=O)n1C [Compound F4582]				
830 nM	CNCc1nc2c(O)c(Cl)cc(Cl)c2c(=O)n1CC(C)C [Compound F4544]	164%	84.0% and 86.9%	29.7% and 26.7%	Metal transport 19%
740 nM	CCCn1c(CN(CC)CC)nc2c(O)c(Cl)cc(Cl)c2c1=O [Compound F4541]	107%	97.3% and 96.4%	76.6% and 90.8%	Metal transport 13%
470 nM	CN(Cc1ccc(F)cc1)Cc1nc2c(O)c(Cl)cc(Cl)c2c(=O)n1CC1CC1 [Compound F4480]	46%	91.6% and 106.7%	30.3% and 33.3%	Metal transport 138%
